According to patent EP1986011A2, “Peptide epitopes recognized by disease promoting CD4+ T lymphocytes” (MGI PHARMA Biologics, Inc., priority 1999, dated 2008):

Columns and labels:
[1] = tested on: isolated HLA-DR4 molecules; experiment: Binding inhibition assay: inhibition of binding of biotinylated invariant chain indicator peptide; parameters: species or system human; settings: HLA-DR4 10 µg/ml, indicator peptide 1 µM, varying concentrations of test peptide, overnight at room temperature (Fig. 3)
Description: Synthetic peptides with amino acid sequences based on the 6 core regions identified by the IMF were tested for their ability to bind to isolated HLA-DR4 molecules in a binding inhibition assay performed essentially as previously described [Chicz et al. (1997), J. Immunol. 159: 4935-4942]. In brief, aliquots of immunopurified preparation of HLA-DR4 (final concentration of 10 µg/ml) were incubated with a biotinylated HLA-DR4 binding peptide (consisting of residues 98-117 of class II MHC invariant chain) ("the indicator peptide") (1 µM) and varying concentrations of the test peptides in 0.2 ml tubes. After an overnight incubation at room temperature, the contents of each tube were transferred to a well of a 96-well plastic microtiter plate precoated with anti-HLA-DR4 antibody. The microtiter plates were rocked for 60 min at room temperature and unbound material was removed by rigorous washing. The relative amount of bound standard peptide in each well was determined by measuring color development after addition of streptavidin-conjugated alkaline phosphatase, washing, and adding a chromogenic alkaline phosphatase substrate.
In order to test for the ability of the 6 consensus peptides representing the 6 core regions defined by the IMF described in Example 1, a binding inhibition assay was performed (Fig. 3). […]

peripheral blood T cells = experiment: T cell proliferation assay (Epitope Verification) with synthetic IA-2 peptides; type: cell-based, human; parameters: key: significant ("POS" in Table 2) proliferative responses; settings: HLA-DR4 IDDM patient DC (I), DRB1 genotype 0403.0405; peptide 10 µg/ml, 5 days; significant = SI >2.0 and >40% wells positive
Description: To establish that peptide epitopes identified are relevant to IDDM (i.e., that they are recognized by CD4+ T cells of patients with IDDM or pre-IDDM expressing the DR4 molecule but not by non-diabetic controls also expressing the DR4 molecule), T cell proliferation assays were carried out using synthetic peptides having amino acid sequences based upon the peptides identified by mass spectrometry to be derived from IA-2ic. Peptides were synthesized using Fmoc chemistry with an Applied Biosystems SYNERGY peptide synthesizer and purified by preparative RP-HPLC on a Waters 2690 Alliance system equipped with a Radial Compression Module. […] Peripheral blood mononuclear cells from recent onset IDDM patients (<6 months from diagnosis) and healthy controls expressing the appropriate HLA DR4 molecules were separated by density gradient centrifugation and co-cultured in wells of 96-well U-bottom plates with peptides at a concentration of 10 µg/ml for 5 days in 150 µl RPMI 1640/10% pooled normal AB serum, followed by pulsing with 0.5 µCi [^3H]-thymidine/well and harvesting onto filters for radioactivity counting measured in counts per minute (cpm). […] Results were expressed as a stimulation index (SI) which is the ratio of the cpm obtained from cultures containing peptide to the cpm obtained from cultures without peptide (mean cpm of 12 wells in each case). […]

Substance: Ii-c: a peptide consisting of residues 98-117 of class II MHC invariant chain (PKPPKPVSKMRMATPLLMQA) [reference compound]
- binding to HLA-DR4 molecules [1]: bind with intermediate avidity

Substance: LAKEWQALCAYQAEPNTCATAQGE [709-732, peptide consisting of residues 709-732 of IA-2]
- binding to HLA-DR4 molecules [1]: bind strongly
- T cell response to IA-2 peptide (peripheral blood T cells): POS
